# Where two headings read alike, the source gives them in different places.
# Experiments:
# Jurkat (Leukemia) cells = test: Jurkat viability and cytotoxicity, GF-AFC and Cytox; type: cell-based, human; conditions: varying doses
# Method: FIG. 6A provides cytotoxicity studies for leukemia cells (Jurkat) with compound SW388710. […] Jurkat (Leukemia) cells were incubated with varying doses of SW388710.
# [1] = test system: HCT-116 (colorectal) cells; test: HCT-116 viability and cytotoxicity, GF-AFC and Cytox; type: cell-based, human; conditions: varying doses
# Method: FIG. 6B provided cytostatic data for colorectal cells, with compound SW388710. […] HCT-116 (colorectal) cells were incubated with varying doses of SW388710.
# HCT116 WT = test: Proliferation of HCT116 colorectal cell line, Cell TiterGlo; type: cell-based, human
# Method in brief: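 HCT116 colorectal cells, wild type, GCN2 CRISPR knockout, or wild type plus ISRIB; proliferation read by CellTiter-Glo luminescence. 10-point dose response in triplicate, IC50 reported; multiple values are independent experiments.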
# phospho-GCN2 = test: Western blot for phospho-GCN2 in HCT116 wild-type and RPS23 mutant cells; type: cell-based, human; conditions: wild-type HCT116 versus RPS23 del R107-G109 mutant
# Method: FIG. 12 is a western blot analysis showing the RPS23 is required for induction of GCN2 phosphorylation by SW710 (SW388710). Cells were incubated with SW710, lysed, then evaluated via western blot for phospho-GCN2, a marker of activation of the integrated stress response.
# To confirm this hypothesis, wild-type HCT116 cells and HCT116 RPS23 del R107-G109 mutant cells were incubated with SW388710. Cells were lysed and evaluated via western blot for phospho-GCN2, a marker of activation of the integrated stress response.
# Jurkat cells = test: Jurkat cell proliferation over three days, Cell Titer Glo; type: cell-based, human
# Method: (§1) FIG. 5A provides cell proliferation studies using Jurkat cells using exemplary novel compounds provided in the current disclosure. Jurkat cells, which are derived from a human leukemia, were incubated with varying concentrations of SW388710. Cell proliferation over three days was evaluated using luminescence from Cell Titer Glo (Promega) which reflects ATP levels.
# as §1, with “5B” for “5A”, “SW393071.” for “SW388710.”
# HCT116 GCN2KO = test: Proliferation of HCT116 cells with GCN2 knocked out (CRISPR), Cell TiterGlo; type: cell-based, human; conditions: for IC50: Homo sapiens
# Method in brief: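 HCT116 cells with CRISPR GCN2 knockout, run alongside wild type and wild type plus ISRIB in the same experiment. 10-point dose response in triplicate; proliferation read by CellTiter-Glo and IC50 derived.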
# [2] = Solubility remark printed in the HCT116 WT column; type: physicochemical; conditions: cell wraps over r19 and r20: poor solubility
SMILES,Cell death in leukemic cells (Jurkat (Leukemia) cells),Proliferation of colorectal cancer cells [1],"IC50 (HCT116 WT; Homo sapiens, HCT-116, wild type HCT116, 10-point dose response in triplicate, multiple values = separate independent experiments, read-out: HCT116 IC50 (uM) HCT116 WT) [µM]","IC50 (HCT116 WT; Homo sapiens, HCT-116, wild type HCT116, tested simultaneously with GCN2KO and +ISRIB, read-out: HCT116 IC50 (uM) HCT116 WT (repeat)) [µM]","IC50 (HCT116 WT; wild type HCT116, compound plus 10 nM of ISRIB, read-out: HCT116 IC50 (uM) HCT116 WT + ISRIB) [µM]",Activation of the ISR (phosphorylation of GCN2) (phospho-GCN2),"IC50 (Jurkat cells; Homo sapiens, Jurkat, 72 h, three days, Cell Titer Glo luminescence) [nM]",Effect of ISRIB on anti-proliferative activity in Jurkat cells (Jurkat cells; addition of 10 nM of ISRIB),"Resistance on knockout of GCN2 (HCT116 GCN2KO; HCT116, GCN2 but not other activating kinases)","IC50 (HCT116 GCN2KO; HCT-116, HCT116 cells with GCN2 knocked out using CRISPR, read-out: HCT116 IC50 (uM) HCT116 − GCN2KO) [µM]",Solubility (remark in place of an IC50) [2],"IC50 (HCT116 WT; Homo sapiens, HCT-116, read-out: HCT116 IC50 (uM) HCT116 WT (repeat)) [µM]","IC50 (HCT116 GCN2KO; HCT-116, read-out: HCT116 IC50 (uM) HCT116 − GCN2KO) [µM]"
"COc1cccc(C(=O)Nc2cc(-c3ccc(NC(=O)c4ccccc4)cc3)nn2C)c1 [SW388710, N-(3-(4-Benzamidophenyl)-1-methyl-1H-pyrazol-5-yl)-3-methoxybenzamide]",induces cell death in leukemic cells,reduces the proliferation of colorectal cancer cells,0.23,0.21,1.89,"Wild-type but not RPS23 mutant cells, showed activation of the ISR",78.2,relative resistance,confers resistance,1.95,–,–,–
"Cn1nc(-c2ccc(NC(=O)c3ccccc3)cc2)cc1NC(=O)c1ccc(C(=O)c2ccccc2)cc1 [SW389003, N-(3-(4-Benzamidophenyl)-1-methyl-1H-pyrazol-5-yl)-4-benzoylbenzamide]",–,–,–,–,–,–,–,–,–,–,poor,≥ 50,≥ 50

# Reference: patent US20250257041A1, “INDUCERS OF INTEGRATED STRESS RESPONSE TO TREAT CANCER” (The Board of Regents of The University of Texas System, priority 2022, published 2025)
